The values that follow come from patent US12258321B1 (University of Jeddah, priority 2024, dated 2025).

For one assay, the system named is MCF-7 cells. As to the kind of experiment: MTT cytotoxicity test on MCF-7 breast cancer cells. The format is cell-based, human. The settings on record: for IC50: Homo sapiens, MCF7, 24 h, read-out: IC50, cytotoxic activity against MCF7 breast cancer cells. The procedure: The MCF-7 breast cancer cell lines were purchased from VACSERA Tissue Culture Unit (Giza, Egypt). MCF-7 cells were cultured in RPMI medium supplemented with 2 mM glutamine and 10% fetal bovine serum. Both cell cultures included […] streptomycin and 100 units/ml penicillin and were kept in a humidified atmosphere with 5% CO2 at 37° C.
All experiments were performed in triplicate. Data were given as mean±SD.
(In general: Tetrazolium assays rely on reduction of a dye to a coloured formazan, in cell work by metabolically active cells.)

In assay [1] the target is T1, BCL-2 (Homo sapiens, UniProt P10415).
T1 construct: purchased BPS Bioscience
T1 sequence (P10415 whole entry): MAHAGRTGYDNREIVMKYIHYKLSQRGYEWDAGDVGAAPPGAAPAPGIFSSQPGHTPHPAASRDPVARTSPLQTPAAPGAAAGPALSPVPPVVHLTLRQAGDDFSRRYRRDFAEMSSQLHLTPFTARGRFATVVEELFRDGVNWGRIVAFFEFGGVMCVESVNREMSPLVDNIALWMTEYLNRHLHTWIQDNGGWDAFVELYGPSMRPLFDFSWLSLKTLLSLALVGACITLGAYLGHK
Put plainly: BCL-2 inhibition by TR-FRET assay (cell-free). The class given is binding. The settings on record: read-out: IC50 against BCL-2. On the procedure: (§1) The effectiveness of inhibiting the MCL-1 and BCL-2 proteins was evaluated using specific assay kits (BPS Bioscience, Sandiego, CA) and corresponding ligands for each protein. […] Measurements were taken of Tb-donor emission at 620 nm followed by dye-acceptor emission at 665 nm, and data analysis was performed using the TR-FRET ratio (665 nm emission/620 nm emission). The FRET value from the positive control was considered as full activity (100%) and the FRET value from the negative control was considered as zero percent activity. Then, % inhibitory activity of test compounds was calculated by the equation: % Activity=FRETS−FRETneg/FRETP−FRETneg×100%
(§2) Where FRETS, FRETneg, and FRETp are sample FRET, negative control FRET, and positive control FRET, respectively. The IC50 values of the test compounds were calculated by nonlinear regression analysis on GraphPad Prism 5 (GraphPad Inc., USA).

For assay [2], the target named is T2, MCL-1 (Homo sapiens, UniProt Q07820).
T2 construct: purchased BPS Bioscience
T2 sequence (Q07820 whole entry): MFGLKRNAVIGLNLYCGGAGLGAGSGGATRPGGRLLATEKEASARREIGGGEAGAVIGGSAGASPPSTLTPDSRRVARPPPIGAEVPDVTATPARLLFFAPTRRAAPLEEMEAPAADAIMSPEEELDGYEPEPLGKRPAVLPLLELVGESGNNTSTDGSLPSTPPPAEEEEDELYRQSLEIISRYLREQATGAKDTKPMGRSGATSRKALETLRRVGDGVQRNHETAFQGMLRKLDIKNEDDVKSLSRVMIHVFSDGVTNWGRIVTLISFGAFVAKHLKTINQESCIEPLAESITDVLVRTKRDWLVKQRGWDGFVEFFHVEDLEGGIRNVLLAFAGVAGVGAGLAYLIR
Put plainly: MCL-1 inhibition by TR-FRET assay (cell-free). The settings on record: read-out: IC50 against MCL-1. The format is binding. The procedure:
as §1, §2
(In general: In TR-FRET formats the signal depends on donor and acceptor labels being close together.)

In the next assay the test system is BAX. As to the kind of experiment: Western blot of BAX level in MCF7 cells. The format is cell-based, human. The settings on record: 24 hours. The procedure: (§3) MCF-7 cells were exposed to compounds Comp-1 and Comp-6 for a period of 24 h, after which western blot analysis was conducted using a previously established protocol^21. To assess the release of cytochrome c, cytosolic and mitochondrial fractions were prepared in accordance with the methods outlined by Kawiak et al^21. Specific primary antibodies were utilized viz; anti-β-actin (1:1,000) (Cell Signaling, Danvers, MA, USA), anti-Bcl-2, anti-Bax, and anti-Mcl-1 (1:250) (Santa Cruz, Heidelberg, Germany), anti-ERK1/2, anti-MEK1/2, anti-p-ERK1/2, and anti-p-MEK1/2 (1:1,000) (Cell Signaling), and anti-cytochrome c (1:5,000) (Abcam, UK), and membranes were subjected to an overnight incubation with these antibodies at 4° C. This was followed by a 1 h incubation with HRP-conjugated secondary antibodies (1:2000) (Cell Signaling). The levels of protein were then determined using chemiluminescence (ChemiDoc; Bio-Rad, Waltham, MA, USA) with an HRP substrate (Thermo Scientific, MA, USA).
(§4) The cytotoxic mechanisms of the exemplary compounds Comp-1 and Comp-6 were investigated. Given that apoptosis is a common mechanism of action for many cancer therapies, we analyzed the levels of apoptotic markers BAX, BCL-2 and MCL-1 after treating MCF7 cells with Comp-1 and Comp-6 for 24 hours. Western blot analysis was performed on cell lysates and compared to untreated cell lysates.
On the technique in general: In western blotting, separated proteins are transferred to a membrane and probed.

Assay [3] has as its system BCL-2. Put plainly: Western blot of BCL-2 expression in MCF7 cells. The format is cell-based, human. The settings on record: 24 hours, vs untreated. On the procedure: as §3, §4
In assay [4] the test system is MCL-1. As to the kind of experiment: Western blot of MCL-1 expression in MCF7 cells. The class given is cell-based, human. The settings on record: 24 hours, vs untreated. On the procedure: as §3, §4
The subject of the next assay is p-MEK1/2. As to the kind of experiment: Western blot of p-MEK1/2 in EGF-stimulated MCF7 cells. The class given is cell-based, human. The settings on record: MCF7 cells stimulated with EGF for 30 minutes. On the procedure:
as §3
(§5) To investigate the impact of exemplary compounds on the cancer-promoting MAPK pathway in MCF7 breast cancer cells, we stimulated the cells with epidermal growth factor (EGF) for 30 minutes to induce p-ERK1/2 and p-MEK1/2 protein expression.

A further assay deals with p-ERK1/2. Put plainly: Western blot of p-ERK1/2 in EGF-stimulated MCF7 cells. The settings on record: MCF7 cells stimulated with EGF for 30 minutes. The format is cell-based, human. On the procedure: as §3, §5

In the case of `O=C(Cc1ccc(-n2cc(COc3cccc4ccccc34)nn2)cc1)NCc1ccccc1`, the results for the IC50 in the assay on MCF-7 cells, at BCL-2 [1] and on MCL-1 [2] were 1880 nM, 1920 nM and 756 nM, respectively. Moreover, the “BAX increase compared to untreated cells (Control)” value with BAX is given as “nine-fold”. Further, the “reduction of BCL-2 expression” value in the assay on BCL-2 [3] turned out to be 55.9%. Further, in the assay with MCL-1 [4], the “reduction of MCL-1 expression” value was 43.7%. Also, the “reduction of p-MEK1/2 signal” value with p-MEK1/2 stood at 55.9%. In addition, in the assay on p-ERK1/2, the “reduction of p-ERK1/2 signal” value came to 50.7%.

For the compound `O=C(Cc1ccc(-n2cc(CO)nn2)cc1)NCc1ccccc1` [Comp-1, N-benzyl-2-(4-(4-(hydroxymethyl)-1H-1,2,3-triazol-1-yl)phenyl)acetamide], the IC50 (usually the concentration that inhibits the measured activity by half) in the assay with MCF-7 cells is 1100 nM; at BCL-2 [1] it was 507 nM; at MCL-1 [2], 365 nM. Besides, the “potency relative to the reference drug Staurosporine (fold higher)” value in the assay with MCF-7 cells (MCF7 cytotoxicity IC50 ratio) is recorded as “approximately 5 fold”. The “BAX increase compared to untreated cells (Control)” value in the assay on BAX is reported as “more than five-fold”. The “reduction of BCL-2 expression” value with BCL-2 [3] came to 65.3%. In addition, the “reduction of MCL-1 expression” value with MCL-1 [4] was found to be 65.4%. In the assay with p-MEK1/2, the “reduction of p-MEK1/2 signal” value is reported as 65.3%. In the assay on p-ERK1/2, the “reduction of p-ERK1/2 signal” value is 46.1%.

For the compound `O=C(Cc1ccc(-n2cc(COCc3ccccc3)nn2)cc1)NCc1ccccc1` [Comp-5, N-benzyl-2-(4-(4-((benzyloxy)methyl)-1H-1,2,3-triazol-1-yl)phenyl)acetamide], in the assay with MCF-7 cells, the IC50 came out at 3200 nM.
